Ends that are not written are not given here.
What was measured:
[1] = molecular target: T1, hexahistidine tagged MDM2 (18–125) (Homo sapiens, UniProt Q00987); assay: Isothermal titration calorimetry (ITC) of ligands against MDM2; format: binding; settings: PBS pH 7.4, 0.05% TWEEN20, 1% DMSO; for Kd: 10 or 20 µM MDM2 in cell
T1 construct: DNA encoding residues Q18 to N125 of HDM2; made in house; host or cells: E. coli BL21(DE3)
Procedure: DNA encoding residues Q18 to N125 of HDM2 were cloned as a NdeI/BamHI fragment into pET19b (Novagen). Recombinant clones carrying the correct insert were identified by DNA sequencing. Plasmid from the identified clone was introduced into E. coli BL21(DE3) and protein production in LB medium was induced with IPTG (1 mM) when the cell density reached OD600 between 0.4 and 0.6. Induced cells were grown at room temperature for 5 h, harvested, and then resuspended in buffer A (50 mM Tris pH 8.0, 10% sucrose). After cell disruption and centrifugation, supernatant was loaded onto a Ni-nitrilotriacetic acid (NTA) column and washed with 5 column volumes of 0.3 M NaCl, 50 mM Tris-HCl pH 8.0, 1 mM DTT. […] The protein was further purified by cation-exchange chromatography (Pharmacia Mono S 5/5, 1 ml/min, 50 mM Tris-HCl pH 7.0, 1 mM DTT) with a 1 M NaCl gradient.
ITC experiments were conducted in a VP-ITC Unit (MicroCal, Northampton, MA). […] All titrations were carried out in 1% DMSO. […] All peptides used were weighed out as solids and dissolved in DMSO. The stock peptide solutions were diluted to their working concentrations in the buffer used for dialysis of the protein. DMSO was carefully added to the MDM2 solution in the VP-ITC cell to buffer match it to the peptide solution. The titration experiments were performed at 20°C with an initial 2 µl injection with duration of 4 s, followed by 28 10 µl injections with a duration of 7.1 s. The spacing between each injection was 150 s. The stirring speed during the titration was 290 rpm. Data was analyzed using Microcal Origin software by fitting to a single-site binding model. Correction for the enthalpy of ligand dilution was carried out by subtracting a linear fit from the last three data points of the titration, after the interaction had reached saturation.

[2] = test system: N-terminal domain of MDM2; settings: peptide of residues 12–30 of WT p53, binding to N-terminal domain of MDM2; ref 10 (Zondlo et al.); cited from earlier work
Description: The molecular interaction of the binding of the MDM2 N-terminal domain to the p53 N-terminus (TA domain) is well understood. Several high-resolution crystal and NMR structures in complex with a variety of peptides and small molecules have been elucidated, [8]. These structural studies indicate that the residues F19, W23 and L26 of the TA domain of p53 are critical for binding to MDM2. Indeed most peptides, peptidomimetics and small molecules that have been developed have indeed emerged as a result of mimicking these interactions. However, it has been known for some time that the other ...

[3] = 293 K (20°C), single-site binding model

T1 sequence (Q00987 18-125): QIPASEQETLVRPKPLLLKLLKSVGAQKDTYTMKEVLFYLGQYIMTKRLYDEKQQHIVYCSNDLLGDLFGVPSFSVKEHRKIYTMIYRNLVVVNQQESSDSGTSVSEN

| Molecule | Kd [1, 3] | further results |
| --- | --- | --- |
| MPRFMDYWEGLA-NH2 [12/1Ala] | 47.2 ± 11.1 nM | – |
| MPRFMDYWEGLP-NH2 [12/1Pro] | 213 ± 36.6 nM | – |
| CC(C)C[C@H](NC(=O)[C@H](CC(C)C)NC(=O)[C@H](CCCCN)NC(=O)[C@H](Cc1c[nH]c2ccccc12)NC(=O)[C@H](CC(C)C)NC(=O)[C@H](CC(=O)O)NC(=O)[C@H](CO)NC(=O)[C@H](Cc1ccccc1)NC(=O)[C@@H](NC(=O)[C@H](CCC(=O)O)NC(=O)[C@@H](N)CCC(N)=O)[C@@H](C)O)C(=O)N[C@@H](CC(N)=O)C(N)=O [P53 Asn] | 168 ± 9.24 nM | – |
| CC(C)C[C@H](NC(=O)[C@H](CC(C)C)NC(=O)[C@H](CCCCN)NC(=O)[C@H](Cc1c[nH]c2ccccc12)NC(=O)[C@H](CC(C)C)NC(=O)[C@H](CC(=O)O)NC(=O)[C@H](CO)NC(=O)[C@H](Cc1ccccc1)NC(=O)[C@@H](NC(=O)[C@H](CCC(=O)O)NC(=O)[C@@H](N)CCC(N)=O)[C@@H](C)O)C(=O)N[C@@H](CO)C(N)=O [p53 Ser] | 75.8 ± 10.4 nM | – |
| CSCC[C@H](NC(=O)[C@H](Cc1ccccc1)NC(=O)[C@H](CCCNC(=N)N)NC(=O)[C@@H]1CCCN1C(=O)[C@@H](N)CCSC)C(=O)N[C@@H](CC(=O)O)C(=O)N[C@@H](Cc1ccc(O)cc1)C(=O)N[C@@H](Cc1c[nH]c2ccccc12)C(=O)N[C@@H](CCC(=O)O)C(=O)NCC(=O)N[C@@H](CC(C)C)C(=O)N[C@@H](CO)C(N)=O [12/1Ser] | 18.8 ± 5.03 nM | – |
| CC(C)C[C@H](NC(=O)[C@H](CC(C)C)NC(=O)[C@H](CCCCN)NC(=O)[C@H](Cc1c[nH]c2ccccc12)NC(=O)[C@H](CC(C)C)NC(=O)[C@H](CC(=O)O)NC(=O)[C@H](CO)NC(=O)[C@H](Cc1ccccc1)NC(=O)[C@@H](NC(=O)[C@H](CCC(=O)O)NC(=O)[C@@H](N)CCC(N)=O)[C@@H](C)O)C(=O)N[C@@H](C)C(N)=O [p53 Ala] | 112 ± 17.9 nM | – |
| P27S: P27S substitution in a peptide corresponding to residues 12–30 of the WT p53 sequence (Zondlo et al.) (PPLSQETFSDLWKLLSENN; not fully specified (C-terminus); UniProt P04637 12-30, looked up, variant P27S) | – | fold improvement in Kd over the wild type sequence [2]: ~200 fold |
| CC(C)C[C@H](NC(=O)[C@H](CC(=O)O)NC(=O)[C@H](CO)NC(=O)[C@H](Cc1ccccc1)NC(=O)[C@@H](NC(=O)[C@H](CCC(=O)O)NC(=O)[C@@H](N)CCC(N)=O)[C@@H](C)O)C(=O)N[C@@H](Cc1c[nH]c2ccccc12)C(=O)N[C@@H](CCCCN)C(=O)N[C@@H](CC(C)C)C(=O)N[C@@H](CC(C)C)C(=O)N[C@H](C(N)=O)[C@@H](C)O [p53Thr] | 38.8 ± 7.43 nM | – |
| Nutlin [Nutlin Racemic, reference compound] | – | ΔG ([1]; binding free energy calculated from the Kd using ΔG = −RTlnKa, 293 K): -8.97 ± 0.15 kcal/mol; ΔH ([1]; enthalpy of binding, 293 K (20°C), single-site binding model): -6.10 ± 0.16 kcal/mol; TΔS ([1]; entropy of binding, 293 K (20°C)): 2.88 kcal/mol |
| MPRFMDYWEGLN-NH2 [12/1] | 240 ± 53.8 nM | – |
| MPRFMDYWEGLT-NH2 [12/1Thr] | 22.9 ± 4.21 nM | – |
